According to patent publication US10407382B2, “EP4 agonists as therapeutic compounds” (ALLERGAN, INC., priority 2014, dated 2019):

Assays:
[1] = target: T1, EP4 (Homo sapiens, UniProt P35408); test: cAMP assay, EP4; type: cell-based; parameters: expressed in transfected cells; host or cells: HEK-EBNA cells; conditions: HEK-EBNA cells expressing EP4
Procedure: A 384-well drug plate was prepared to contain 6 test compounds, PGE2 and cAMP in 16 serial dilutions in triplicate, using a Biomek station. HEK-EBNA cells expressing a target PG receptor subtype (EP2 or EP4) were suspended in a stimulation buffer (HBSS, 0.1% BSA, 0.5 mM IBMX and 5 mM HEPES, pH 7.4) in a density of 10^4 cells/5 μL. The reaction was initiated by mixing 5 μL drug dilutions with 5 μL of HEK-EBNA cells in a well, carried out for 30 min at room temperature, and followed by the addition of 5 μL anti-cAMP acceptor beads in the control buffer with Tween-20 (25 mM NaCl, 0.03% Tween-20, 5 mM HEPES, pH 7.4). After 30 min in the dark at room temperature, the mixtures were incubated with 15 μL biotinylated-cAMP/strepavidin donor beads in Lysis/Detection buffer (0.1% BSA, 0.3% Tween-20 and 5 mM HEPES, pH 7.4) for 45 min at the room temperature. Fluorescence changes were read using a Fusion-alpha HT microplate reader.

[2] = target: T1, EP4; test: Radioligand binding, EP4; parameters: expressed in transfected cells; membrane fraction; conditions: [3H]PGE2 competition
Procedure: (§1) Data from running binding and activity studies on the compounds of the invention were carried out as described in U.S. Pat. No. 7,427,685, the contents of which are incorporated herein by reference.
(§2) Cells Stably Expressing EP1, EP2, EP4, and FP Receptors
(§3) HEK-293 cells stably expressing the human or feline FP receptor, or EP1, EP2, or EP4 receptors were washed with TME buffer, scraped from the bottom of the flasks, and homogenized for 30 sec using a Brinkman PT 10/35 polytron. TME buffer was added to achieve a final 40 ml volume in the centrifuge tubes (the composition of TME is 100 mM TRIS base, 20 mM MgCl2, […]; ION HCl is added to achieve a pH of 7.4).
(§4) The cell homogenate was centrifuged at 19000 rpm for 20 min at 4° C. using a Beckman Ti-60 rotor. The resultant pellet was resuspended in TME buffer to give a final 1 mg/ml protein concentration, as determined by Biorad assay. Radioligand binding competition assays vs. [^3H-]17-phenyl PGF2α (5 nM) were performed in a 100 μl volume for 60 min. Binding reactions were started by adding plasma membrane fraction. The reaction was terminated by the addition of 4 ml ice-cold TRIS-HCl buffer and rapid filtration through glass fiber GF/B filters using a Brandel cell harvester. The filters were washed 3 times with ice-cold buffer and oven dried for one hour.
(§5) [^3H-] PGE2 (specific activity 180 Ci mmol) was used as the radio ligand for EP receptors. [^3H] 17-phenyl PGF2α was employed for FP receptor binding studies. Binding studies employing EP1, EP2, EP4 and FP receptors were performed in duplicate in at least three separate experiments. A 200 μl assay volume was used. Incubations were for 60 min at 25° C. and were terminated by the addition of 4 ml of ice-cold 50 mM TRIS-HCl, followed by rapid filtration through Whatman GF/B filters and three additional 4 ml washes in a cell harvester (Brandel). Competition studies were performed using a final concentration of 5 nM [^3H]-PGE2, or 5 nM [^3H] 17-phenyl PGF2α and non-specific binding determined with 10^−5M of unlabeled PGE2, or 17-phenyl PGF2α, according to receptor subtype studied.

[3] = target: EP2 (Homo sapiens, UniProt P43116); test: Ki competition binding, EP2; parameters: expressed in transfected cells; conditions: [3H]PGE2 competition; NA = no activity
Chain of EP2 (P43116 whole entry): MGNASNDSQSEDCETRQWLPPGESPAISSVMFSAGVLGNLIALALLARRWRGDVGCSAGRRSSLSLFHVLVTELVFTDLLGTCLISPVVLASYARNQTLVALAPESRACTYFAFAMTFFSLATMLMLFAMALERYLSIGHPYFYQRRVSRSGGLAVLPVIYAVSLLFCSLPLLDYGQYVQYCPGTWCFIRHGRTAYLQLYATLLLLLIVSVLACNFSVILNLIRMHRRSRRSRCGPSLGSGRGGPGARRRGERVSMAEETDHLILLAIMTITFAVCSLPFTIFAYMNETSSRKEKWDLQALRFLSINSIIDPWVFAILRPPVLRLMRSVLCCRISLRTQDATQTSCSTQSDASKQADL
Procedure: as §1
Competition binding experiments were performed in a medium containing Hank's balanced salt solution, Hepes 20 mM, pH 7.3, membranes (˜60 μg protein) or 2×10^5 cells from HEK 293 cells stably expressing human EP2 receptors, [^3H]PGE2 (10 nM) and various concentrations of test compounds in a total volume of 300 μl. Reaction mixtures were incubated at 23° C. for 60 min, and were filtered over Whatman GF IB filters under vacuum. Filters were washed three times with 5 ml ice-cold buffer containing 50 mM Tris/HCl (PH 7.3). Non-specific binding was estimated in the presence of excess unlabeled PGE2 (10 μM). Binding data fitted to the binding model for a single class of binding sites, using nonlinear regression analysis. IC50 values thus obtained were converted to Ki using the equation of Ki=(IC50/(1+[L]/KD) where [L] represents PGE2 concentration (10 nM) and KD the dissociation constant for [^3H]PGE2 at human EP2 receptors (40 nM).
as §2, §3, §4, §5

T1 sequence (P35408 whole entry): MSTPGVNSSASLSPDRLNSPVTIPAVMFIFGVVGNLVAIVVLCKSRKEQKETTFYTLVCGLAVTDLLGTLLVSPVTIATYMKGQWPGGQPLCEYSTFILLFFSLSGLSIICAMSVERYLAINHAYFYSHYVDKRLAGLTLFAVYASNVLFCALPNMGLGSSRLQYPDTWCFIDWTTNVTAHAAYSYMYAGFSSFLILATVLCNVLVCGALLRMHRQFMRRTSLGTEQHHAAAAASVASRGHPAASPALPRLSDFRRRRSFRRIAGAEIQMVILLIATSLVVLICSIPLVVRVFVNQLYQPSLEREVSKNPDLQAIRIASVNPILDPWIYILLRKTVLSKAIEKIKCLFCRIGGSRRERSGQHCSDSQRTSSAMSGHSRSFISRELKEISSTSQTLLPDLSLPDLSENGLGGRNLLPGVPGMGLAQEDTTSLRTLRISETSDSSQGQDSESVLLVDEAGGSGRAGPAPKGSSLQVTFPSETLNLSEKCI

SMILES	EC50 [1]	Ki [2]	Ki [3]	EP4 data cAMP EC50 [1]
COc1cccc(CC2CCCCC2C(=O)NCc2ccc(C(=O)O)cc2)c1OC (single isomer, unassigned) [Example 15, 4-((2-(2,3-Dimethoxybenzyl)cyclohexanecarboxamido)methyl)benzoic Acid]	> 10000 nM	17 nM	7480 nM	
COc1ccccc1CC1CCCCC1C(=O)NCc1ccc(C(=O)O)cc1 (single isomer, unassigned) [Example 31, 4-((2-(2-Methoxybenzyl)cyclohexanecarboxamido)methyl)benzoic Acid]	> 10000 nM	5 nM	994 nM	
COc1ccccc1CC1=C(C(=O)NCc2ccc(C(=O)O)cc2)CCCC1 [Example 30, 4-((2-(2-Methoxybenzyl)cyclohex-1-enecarboxamido)methyl)benzoic Acid]	> 10000 nM	6 nM	219 nM	
COc1cc(/C=C2\[C@@H]3CC[C@@H](C3)[C@H]2C(=O)NCc2ccc(C(=O)O)cc2)cc(OC)c1 (racemic) [Example 37, 4-(((1S,2R,4R,E)-3-(3,5-Dimethoxybenzylidene)bicyclo[2.2.1]heptane-2-carboxamido)methyl)benzoic Acid]	> 10000 nM	323 nM		
COc1cccc(CC2=C(C(=O)NCc3ccc(C(=O)O)cc3)CCCC2)c1 [Example 27, 4-((2-(3-Methoxybenzyl)cyclohex-1-enecarboxamido)methyl)benzoic Acid]	> 10000 nM	2 nM	138 nM	
CN(Cc1ccc(C(=O)O)cc1)C(=O)C1=C(Cc2cccc(C(F)(F)F)c2)CCC1 [Example 7, 4-((N-Methyl-2-(3-(trifluoromethyl)benzyl)cyclopent-1-enecarboxamido)methyl)benzoic Acid]		1570 nM		
COc1cccc(CC2CCCCC2C(=O)NCc2ccc(C(=O)O)cc2)c1 (single isomer, unassigned) [Example 28, 4-((2-(3-Methoxybenzyl)cyclohexanecarboxamido)methyl)benzoic Acid]	> 10000 nM	4 nM	2350 nM	
COc1cc(CC2CCCC2C(=O)NCc2ccc(C(=O)O)cc2)cc(OC)c1 (single isomer, unassigned) [Example 1, 4-((2-(3,5-Dimethoxybenzyl)cyclopentanecarboxamido)methyl)benzoic Acid]		30 nM	6190 nM	weak
COc1ccc(CC2CCCCC2C(=O)NCc2ccc(C(=O)O)cc2)cc1 (single isomer, unassigned) [Example 35, 4-((2-(4-Methoxybenzyl)cyclohexanecarboxamido)methyl)benzoic Acid]	> 10000 nM	86 nM	> 10000 nM	
COc1cc(CC2CCCC2C(=O)NCc2ccc(C(=O)O)cc2)cc(OC)c1 (single isomer, unassigned) [Example 2, 4-((2-(3,5-Dimethoxybenzyl)cyclopentanecarboxamido)methyl)benzoic Acid]	9 nM	84 nM	> 10000 nM	
COc1cc(CC2C3CCC(C3)C2C(=O)NCc2ccc(C(=O)O)cc2)cc(OC)c1 (racemic) [Example 39, 4-((3-(3,5-Dimethoxybenzyl)bicyclo[2.2.1]heptane-2-carboxamido)methyl)benzoic Acid]	> 10000 nM	77 nM		
COc1cccc(CC2CCCCC2C(=O)NCc2ccc(C(=O)O)cc2)c1 (single isomer, unassigned) [Example 29, 4-((2-(3-Methoxybenzyl)cyclohexanecarboxamido)methyl)benzoic Acid]	4 nM	19 nM	2570 nM	
COc1ccccc1CC1CCCCC1C(=O)NCc1ccc(C(=O)O)cc1 (single isomer, unassigned) [Example 32, 4-((2-(2-Methoxybenzyl)cyclohexanecarboxamido)methyl)benzoic Acid]	> 10000 nM	7 nM	1320 nM	
COc1ccc(OC)c(CC2CCCCC2C(=O)NCc2ccc(C(=O)O)cc2)c1 (single isomer, unassigned) [Example 18, 4-((2-(2,5-Dimethoxybenzyl)cyclohexanecarboxamido)methyl)benzoic Acid]	> 10000 nM	16 nM	462 nM	
COc1ccc(CC2CCCCC2C(=O)NCc2ccc(C(=O)O)cc2)cc1OC (single isomer, unassigned) [Example 22, 4-((2-(3,4-Dimethoxybenzyl)cyclohexanecarboxamido)methyl)benzoic Acid]	> 10000 nM	4 nM		
COc1cccc(CC2CCCCC2C(=O)NCc2ccc(C(=O)O)cc2)c1OC (single isomer, unassigned) [Example 16, 4-((2-(2,3-Dimethoxybenzyl)cyclohexanecarboxamido)methyl)benzoic Acid]	> 10000 nM	114 nM	4120 nM	
COc1ccc(CC2=C(C(=O)NCc3ccc(C(=O)O)cc3)CCCC2)cc1OC [Example 21, 4-((2-(3,4-Dimethoxybenzyl)cyclohex-1-enecarboxamido)methyl)benzoic Acid]	> 10000 nM	4 nM		
O=C(O)c1ccc(CNC(=O)C2CCCCC2Cc2ccccc2)cc1 (single isomer, unassigned) [Example 26, 4-((2-Benzylcyclohexanecarboxamido)methyl)benzoic Acid]	35 nM	116 nM	2920 nM	
COc1ccc(CC2CCCCC2C(=O)NCc2ccc(C(=O)O)cc2)cc1OC (single isomer, unassigned) [Example 23, 4-((2-(3,4-Dimethoxybenzyl)cyclohexanecarboxamido)methyl)benzoic Acid]	> 10000 nM	8 nM		
COc1cccc(CC2=C(C(=O)NCc3ccc(C(=O)O)cc3)CCCC2)c1OC [Example 14, 4-((2-(2,3-Dimethoxybenzyl)cyclohex-1-enecarboxamido)methyl)benzoic Acid]	> 10000 nM	45 nM	1190 nM	
COc1ccc(OC)c(CC2CCCCC2C(=O)NCc2ccc(C(=O)O)cc2)c1 (single isomer, unassigned) [Example 19, 4-((2-(2,5-Dimethoxybenzyl)cyclohexanecarboxamido)methyl)benzoic Acid]	0.2 nM	2 nM	393 nM	
O=C(O)c1ccc(CNC(=O)C2CCCCC2Cc2ccccc2)cc1 (single isomer, unassigned) [Example 25, 4-((2-Benzylcyclohexanecarboxamido)methyl)benzoic Acid]	> 10000 nM	58 nM	4950 nM	
COc1cc(CC2=C(C(=O)NCc3ccc(C(=O)O)cc3)C3CCC2C3)cc(OC)c1 (centres unmarked) [Example 36, 4-((3-(3,5-Dimethoxybenzyl)bicyclo[2.2.1]hept-2-ene-2-carboxamido)methyl)benzoic Acid]		1010 nM		
COc1cc(CC2C3CCC(C3)C2C(=O)NCc2ccc(C(=O)O)cc2)cc(OC)c1 (centres unmarked) [Example 38, 4-((3-(3,5-Dimethoxybenzyl)bicyclo[2.2.1]heptane-2-carboxamido)methyl)benzoic Acid]	> 10000 nM	402 nM		
